In general, EC50 refers to the concentration needed to bring the measured effect to its halfway point. A word on the IC50: it is the concentration at which inhibition is half-maximal.

Each structure is given as a SMILES string. A value given as a limit tells only on which side of the number the result lay.

One assay deals with T1, STAT6 (Homo sapiens, UniProt P42226).
T1 construct: stably transfected HaCaT keratinocyte cell line, which expresses NanoLuc luciferase reporter gene under the transcriptional control of the STAT6 responsive promoter; endogenous in cells; host or cells: HaCaT keratinocyte reporter cell line (stably transfected with a NanoLuc reporter)
T1 sequence (P42226 1-847): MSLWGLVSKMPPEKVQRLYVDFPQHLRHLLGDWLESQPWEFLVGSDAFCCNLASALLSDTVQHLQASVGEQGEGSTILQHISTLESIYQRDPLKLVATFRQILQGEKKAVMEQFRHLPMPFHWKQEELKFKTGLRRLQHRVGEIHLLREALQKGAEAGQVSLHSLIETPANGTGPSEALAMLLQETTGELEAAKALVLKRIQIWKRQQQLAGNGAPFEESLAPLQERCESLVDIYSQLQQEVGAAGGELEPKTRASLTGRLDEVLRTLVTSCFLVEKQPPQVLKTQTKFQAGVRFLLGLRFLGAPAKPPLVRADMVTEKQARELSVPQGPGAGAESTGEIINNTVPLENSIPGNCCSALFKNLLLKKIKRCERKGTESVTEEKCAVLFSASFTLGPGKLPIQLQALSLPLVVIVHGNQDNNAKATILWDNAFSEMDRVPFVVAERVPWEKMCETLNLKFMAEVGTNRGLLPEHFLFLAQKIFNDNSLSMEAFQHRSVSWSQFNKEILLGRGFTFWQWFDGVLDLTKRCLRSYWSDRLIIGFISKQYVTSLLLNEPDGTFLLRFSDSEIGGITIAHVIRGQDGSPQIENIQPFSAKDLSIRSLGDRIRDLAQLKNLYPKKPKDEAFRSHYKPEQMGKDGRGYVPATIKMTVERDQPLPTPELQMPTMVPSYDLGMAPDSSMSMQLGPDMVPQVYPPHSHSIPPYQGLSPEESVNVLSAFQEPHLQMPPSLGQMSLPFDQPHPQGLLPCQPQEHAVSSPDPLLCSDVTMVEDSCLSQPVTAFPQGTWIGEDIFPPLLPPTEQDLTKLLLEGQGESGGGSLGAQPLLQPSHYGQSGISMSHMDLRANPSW
In words: STAT6 Reporter Luciferase Assay (IL-13 stimulated HaCaT keratinocyte NanoLuc reporter cells). Format: cell-based. Conditions: IL-13 stimulated HaCaT STAT6 NanoLuc reporter cells; read-out: Reporter EC50. The essentials:
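Compounds were tested as 11-point, 4-fold series in duplicate, applied for 2 h at 37 °C in low-serum (2% FBS) DMEM. The cells were a stable HaCaT line with NanoLuc under a STAT6-responsive IL-13Ra2 promoter. After 4 h with 0.12 nM IL-13, Nano-Glo luminescence was measured.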

The subject of assay [1] is CCL17 secretion in peripheral human whole blood. In words: Human Whole Blood (HWB) CCL17 TR-FRET Assay (IL-13 stimulated CCL17 secretion). In kind it is cell-based. Conditions: human whole blood, IL-13 stimulated. The essentials: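 IC50 comes from serum CCL17 measured by a TR-FRET sandwich assay (16 h at room temperature, 665/615 nm ratio). Beforehand, blood in sodium heparin was exposed to an 11-point, 3-fold compound series for 2 h at 37°C and then to 10 ng/mL IL-13 for 48 h.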

For `CC(CO)n1nc(C(=O)NCc2ccc(NC(=O)N(C)C)cc2)c2c1CCN(c1ccc(C(=O)N(C)C)cn1)C2` (single isomer, unassigned) [Example 360, rel-(R or S)-5-(5-(dimethylcarbamoyl)pyridin-2-yl)-N-(4-(3,3-dimethylureido)benzyl)-1-(1-hydroxypropan-2-yl)-4,5,6,7-tetrahydro-1H-pyrazolo[4,3-c]pyridine-3-carboxamide], at STAT6, the EC50 came to 74 nM. The compound further came in with an IC50 in assay [1] (48 hours) of 91 nM.

`CC(C)n1nc(C(=O)NCc2ccc(NC(=O)N(C)C)cc2)c2c1CCN(c1ccc(C3CCCO3)cn1)C2` (single isomer, unassigned) [Example 361, rel-(R or S)-N-(4-(3,3-dimethylureido)benzyl)-1-isopropyl-5-(5-(tetrahydrofuran-2-yl)pyridin-2-yl)-4,5,6,7-tetrahydro-1H-pyrazolo[4,3-c]pyridine-3-carboxamide]: at STAT6, the concentration for a half-maximal effect (EC50) is 158 nM. For the same compound, the half-inhibitory concentration (IC50) in assay [1] (Homo sapiens, 48 h) was > 4080 nM.

On to `CC(C)n1nc(C(=O)NCc2ccc(NC(=O)N(C)C)cc2)c2c1CCN(c1ccc(C3CCCO3)cn1)C2` (single isomer, unassigned) [Example 362, rel-(R or S)-N-(4-(3,3-dimethylureido)benzyl)-1-isopropyl-5-(5-(tetrahydrofuran-2-yl)pyridin-2-yl)-4,5,6,7-tetrahydro-1H-pyrazolo[4,3-c]pyridine-3-carboxamide], for which the EC50 on STAT6 was determined as 838 nM. The IC50 in assay [1] (48 hours) was > 3490 nM.

On to `CN(C)C(=O)Nc1ccc(CNC(=O)c2nn(C)c3c2CN(c2ccc(C(=O)N(C)C)cn2)CC3C(F)(F)F)cc1` (single isomer, unassigned) [Example 391, rel-(R or S)-5-(5-(dimethylcarbamoyl)pyridin-2-yl)-N-(4-(3,3-dimethylureido)benzyl)-1-methyl-7-(trifluoromethyl)-4,5,6,7-tetrahydro-1H-pyrazolo[4,3-c]pyridine-3-carboxamide], for which the EC50 at STAT6 worked out at 740 nM. Besides, the IC50 in assay [1] (Homo sapiens, 48 h) was 2170 nM.

As to `CN(C)C(=O)Nc1ccc(CNC(=O)c2nn(C)c3c2CN(c2ncc(C(=O)N(C)C)cn2)CC3C(F)(F)F)cc1` (single isomer, unassigned) [Example 392, rel-(R or S)-5-(5-(dimethylcarbamoyl)pyrimidin-2-yl)-N-(4-(3,3-dimethylureido)benzyl)-1-methyl-7-(trifluoromethyl)-4,5,6,7-tetrahydro-1H-pyrazolo[4,3-c]pyridine-3-carboxamide], the EC50 on STAT6 stood at 568 nM. Further, the IC50 in assay [1] (Homo sapiens, 48 h) is 1080 nM.

Regarding `CC(C)n1nc(C(=O)NCc2ccc(NC(=O)N(C)C)cc2)c2c1CCN(c1ccc(C3CCCCO3)cn1)C2` (single isomer, unassigned) [Example 393, rel-(R or S)-N-(4-(3,3-dimethylureido)benzyl)-1-isopropyl-5-(5-(tetrahydro-2H-pyran-2-yl)pyridin-2-yl)-4,5,6,7-tetrahydro-1H-pyrazolo[4,3-c]pyridine-3-carboxamide], the EC50 at STAT6 was > 8750 nM. In addition, the 50% inhibitory concentration (IC50) in assay [1] (Homo sapiens, 48 h) was > 30000 nM.

In the case of `CC(C)n1nc(C(=O)NCc2ccc(NC(=O)N(C)C)cc2)c2c1CCN(c1ccc(C3CCCCO3)cn1)C2` (single isomer, unassigned) [Example 394, rel-(R or S)-N-(4-(3,3-dimethylureido)benzyl)-1-isopropyl-5-(5-(tetrahydro-2H-pyran-2-yl)pyridin-2-yl)-4,5,6,7-tetrahydro-1H-pyrazolo[4,3-c]pyridine-3-carboxamide], at STAT6, the EC50 is > 7660 nM. Besides, the IC50 in assay [1] (48 hours) was > 30000 nM.

`CCc1nc(C(=O)NCc2ccc(NC(=O)N(C)C)cc2)c2n1C(C)CN(c1ccc(C(=O)N(C)C)cc1)C2` (single isomer, unassigned) [Example 428, rel-(R or S)-7-(4-(dimethylcarbamoyl)phenyl)-N-(4-(3,3-dimethylureido)benzyl)-3-ethyl-5-methyl-5,6,7,8-tetrahydroimidazo[1,5-a]pyrazine-1-carboxamide]: at STAT6, the EC50 was 17 nM. The compound also registered an IC50 in assay [1] (48 hours) of 140 nM.

On to `CCc1nc(C(=O)NCc2ccc(NC(=O)N(C)C)cc2)c2n1C(C)CN(c1ccc(C(=O)N(C)C)cc1)C2` (single isomer, unassigned) [Example 429, rel-(R or S)-7-(4-(dimethylcarbamoyl)phenyl)-N-(4-(3,3-dimethylureido)benzyl)-3-ethyl-5-methyl-5,6,7,8-tetrahydroimidazo[1,5-a]pyrazine-1-carboxamide], for which the 50% effective concentration (EC50) at STAT6 stood at 1 nM. The compound further showed a concentration for half-maximal inhibition (IC50) in assay [1] (48 hours) of 6 nM.

On to `C[C@H]1c2c(C(=O)NCc3ccc(NC(=O)N(C)C)cc3)nn(C)c2CCN1c1ccc(C(=O)N(C)C)cn1` (single isomer, unassigned) [Example 444], for which the EC50 at STAT6 worked out at 158 nM. Further, it took 1380 nM to reach half-maximal inhibition in assay [1] (Homo sapiens, 48 h) (IC50).

As for `C[C@@H]1c2c(C(=O)NCc3ccc(NC(=O)N(C)C)cc3)nn(C)c2CCN1c1ccc(C(=O)N(C)C)cn1` (single isomer, unassigned) [Example 445], the EC50 on STAT6 came to 2 nM. In assay [1] (Homo sapiens, 48 h), this compound registered an IC50 of 21 nM.

On to `CCn1nc(C(=O)NCc2ccc(NC(=O)N(C)C)cc2)c2c1[C@H](C)[C@@H](C)N(c1ncc(C(=O)N(C)C)cn1)C2` (single isomer, unassigned) [Example 446], for which, on STAT6, the EC50 was determined as 15 nM. This compound also yielded an IC50 in assay [1] (Homo sapiens, 48 h) of 80 nM.

For the compound `CCn1nc(C(=O)NCc2ccc(NC(=O)N(C)C)cc2)c2c1[C@@H](C)[C@H](C)N(c1ncc(C(=O)N(C)C)cn1)C2` (single isomer, unassigned) [Example 447], on STAT6, the EC50 came to 0.4 nM. In addition, the IC50 in assay [1] (Homo sapiens, 48 h) was > 413 nM.

Consider `CC(C)n1nc(C(=O)NCc2ccc(NC(=O)N(C)C)cc2)c2c1[C@H](C)[C@@H](C)N(c1ncc(C(=O)N(C)C)cn1)C2` (single isomer, unassigned) [Example 448], for which the EC50 at STAT6 worked out at 13 nM. In addition, in assay [1] (Homo sapiens, 48 h), the IC50 is > 30000 nM.

Take `CC(C)n1nc(C(=O)NCc2ccc(NC(=O)N(C)C)cc2)c2c1[C@@H](C)[C@H](C)N(c1ncc(C(=O)N(C)C)cn1)C2` (single isomer, unassigned) [Example 449]: on STAT6, the concentration giving a half-maximal response (EC50) came to 0.2 nM. Further, the concentration for half-maximal inhibition (IC50) in assay [1] (Homo sapiens, 48 h) was determined as 4 nM.

For the compound `CC(C)n1nc(C(=O)NCc2ccc(NC(=O)N(C)C)cc2)c2c1C(C(F)(F)F)CN(c1ncc(C(=O)N(C)C)cn1)C2` (single isomer, unassigned) [Example 461, rel-(R or S)-5-(5-(dimethylcarbamoyl)pyrimidin-2-yl)-N-(4-(3,3-dimethylureido)benzyl)-1-isopropyl-7-(trifluoromethyl)-4,5,6,7-tetrahydro-1H-pyrazolo[4,3-c]pyridine-3-carboxamide], the EC50 at STAT6 amounted to 0.2 nM. In addition, the IC50 in assay [1] (48 hours) is < 1 nM.

In the case of `CC(C)n1nc(C(=O)NCc2ccc(NC(=O)N(C)C)cc2)c2c1C(C(F)(F)F)CN(c1ncc(C(=O)N(C)C)cn1)C2` (single isomer, unassigned) [Example 462, rel-(R or S)-5-(5-(dimethylcarbamoyl)pyrimidin-2-yl)-N-(4-(3,3-dimethylureido)benzyl)-1-isopropyl-7-(trifluoromethyl)-4,5,6,7-tetrahydro-1H-pyrazolo[4,3-c]pyridine-3-carboxamide], the EC50 at STAT6 is 38.7 nM. This compound showed an IC50 in assay [1] (48 hours) of 376 nM.

Take `CCn1nc(C(=O)NCc2ccc(NC(=O)N(C)C)cc2)c2c1C(C(F)(F)F)CN(c1ncc(C(=O)N(C)C)cn1)C2` (single isomer, unassigned) [Example 464, rel-(R or S)-5-(5-(dimethylcarbamoyl)pyrimidin-2-yl)-N-(4-(3,3-dimethylureido)benzyl)-1-ethyl-7-(trifluoromethyl)-4,5,6,7-tetrahydro-1H-pyrazolo[4,3-c]pyridine-3-carboxamide]: the EC50 on STAT6 stood at 0.2 nM. The same compound had a half-maximal inhibitory concentration (IC50) in assay [1] (48 hours) of 2 nM.

For the compound `CCn1nc(C(=O)NCc2ccc(NC(=O)N(C)C)cc2)c2c1C(C(F)(F)F)CN(c1ncc(C(=O)N(C)C)cn1)C2` (single isomer, unassigned) [Example 465, rel-(R or S)-5-(5-(dimethylcarbamoyl)pyrimidin-2-yl)-N-(4-(3,3-dimethylureido)benzyl)-1-ethyl-7-(trifluoromethyl)-4,5,6,7-tetrahydro-1H-pyrazolo[4,3-c]pyridine-3-carboxamide], the EC50 at STAT6 is 51.8 nM. Further, 682 nM corresponded to half-maximal inhibition in assay [1] (48 hours) (IC50).

For the origin of these results see US20250320213A1, “Nitrogen-Containing Heterocyclic Compounds” (Pfizer Inc., priority 2024, published 2025).
